Test results: ChEMBL document CHEMBL1201862, “PubChem BioAssay data set” (2004)
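Method: 48-hour compound exposure of cells in 96-well plates, five concentrations, linear interpolation of endpoints. GI50 marks 50% less growth.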 Calls of active or inactive are those of the source. Rule as the data show it: active = GI50 up to about 1.1 µM and inactive = higher. Square brackets hold non-standard residues; d marks the D form. Peptide text beside a SMILES is read from it. * marks the point of attachment. ξ: configuration not given here. NMeN = CN[C@@H](CC(N)=O)C(=O)O; NMeV = CN[C@H](C(=O)O)C(C)C; ξNMeV = CNC(C(=O)O)C(C)C; Boc = CC(C)(C)OC(=O)*; ξNMeA = CNC(C)C(=O)O

Assays:
Assay in all cases: NCI-60 cell line screen, 48 h
IGROV-1 = system: IGROV-1
DMS-273 = system: DMS-273
M19-MEL = system: M19-MEL
ACHN = system: ACHN
OVCAR-3 = system: OVCAR-3
CAKI-1 = system: CAKI-1
COLO 205 = system: COLO 205
EKVX = system: EKVX
SF-295 = system: SF-295
RXF 393 = system: RXF 393
CCRF-CEM = system: CCRF-CEM
SR = system: SR
SK-MEL-28 = system: SK-MEL-28
KM12 = system: KM12
OVCAR-5 = system: OVCAR-5
NCI-H460 = system: NCI-H460
SW-620 = system: SW-620
SF-268 = system: SF-268
BT-549 = system: BT-549
NCI/ADR-RES = system: NCI/ADR-RES

Structure (SMILES) | GI50 (IGROV-1) | GI50 (DMS-273) | GI50 (M19-MEL) | GI50 (ACHN) | GI50 (OVCAR-3) | GI50 (CAKI-1) | GI50 (COLO 205) | GI50 (EKVX) | GI50 (SF-295) | GI50 (RXF 393) | GI50 (CCRF-CEM) | GI50 (SR) | GI50 (SK-MEL-28) | GI50 (KM12) | GI50 (OVCAR-5) | GI50 (NCI-H460) | GI50 (SW-620) | GI50 (SF-268) | GI50 (BT-549) | GI50 (NCI/ADR-RES)
N#Cc1cccc(/C=N/C23CC4CC(CC(C4)C2)C3)c1 | > 100 µM (inactive) | > 100 µM (inactive) | > 100 µM (inactive) | > 100 µM (inactive) | > 100 µM (inactive) | > 100 µM (inactive) | > 100 µM (inactive) | > 100 µM (inactive) | > 100 µM (inactive) | > 100 µM (inactive) | 62.5 µM (inactive) | 76.2 µM (inactive) | > 100 µM (inactive) | > 100 µM (inactive) | > 100 µM (inactive) | > 100 µM (inactive) | > 100 µM (inactive) | > 100 µM (inactive) | – | –
COc1cc(/C=C2\CCC(C)(CN(C)C)C2=O)cc(OC)c1OC (stereo not given) | > 100 µM (inactive) | > 100 µM (inactive) | > 100 µM (inactive) | > 100 µM (inactive) | > 100 µM (inactive) | > 100 µM (inactive) | > 100 µM (inactive) | > 58.3 µM (inactive) | > 100 µM (inactive) | > 100 µM (inactive) | 52.4 µM (inactive) | 63.4 µM (inactive) | > 100 µM (inactive) | > 100 µM (inactive) | > 100 µM (inactive) | > 100 µM (inactive) | > 100 µM (inactive) | > 100 µM (inactive) | – | –
CCCCCCCCCCCCCCCC(=O)OCC1OC(OC)C2NP(=O)(N(CCCl)CCCl)OC1C2O (stereo not given) | 19 µM (inactive) | 0.152 µM (active) | 15.6 µM (inactive) | 0.953 µM (active) | 3.16 µM (inactive) | 0.752 µM (active) | 4.22 µM (inactive) | 22 µM (inactive) | 4.48 µM (inactive) | 1.68 µM (inactive) | 0.142 µM (active) | 0.0177 µM (active) | 22.2 µM (inactive) | 16.3 µM (inactive) | 20.8 µM (inactive) | 0.54 µM (active) | 2.22 µM (inactive) | 1.67 µM (inactive) | 2.3 µM (inactive) | –
O=c1c2cccnc2ncn1CCN1CCCC1 | > 100 µM (inactive) | > 100 µM (inactive) | > 100 µM (inactive) | > 100 µM (inactive) | > 100 µM (inactive) | > 100 µM (inactive) | > 100 µM (inactive) | > 100 µM (inactive) | > 100 µM (inactive) | > 100 µM (inactive) | > 100 µM (inactive) | > 100 µM (inactive) | > 100 µM (inactive) | > 100 µM (inactive) | > 100 µM (inactive) | > 100 µM (inactive) | > 100 µM (inactive) | > 100 µM (inactive) | – | –
C=C(CCCCCCCCC)CC(=O)SCCNC(=O)CCNC(=O)C(O)C(C)(C)COP(=O)(O)OP(=O)(O)OCC1OC(n2cnc3c(N)ncnc32)C(O)C1OP(=O)(O)O (stereo not given) | 98.2 µM (inactive) | 21 µM (inactive) | 29.8 µM (inactive) | > 100 µM (inactive) | 77.8 µM (inactive) | > 100 µM (inactive) | > 100 µM (inactive) | 51.2 µM (inactive) | 57.4 µM (inactive) | > 71.1 µM (inactive) | > 70.6 µM (inactive) | 36.4 µM (inactive) | 10.4 µM (inactive) | 52.6 µM (inactive) | > 100 µM (inactive) | 35.4 µM (inactive) | > 100 µM (inactive) | 8.73 µM (inactive) | > 60.8 µM (inactive) | > 100 µM (inactive)
COC(=O)C(C)N(C)C(=O)[C@H](CC(N)=O)N(C)C(=O)[C@@H]1CCCN1C(=O)[C@H](C(C)C)N(C)C(=O)C(C(C)C)N(C)C(=O)[C@@H](NC(=O)OC(C)(C)C)C(C)C (stereo not given in full) (Boc-V[ξNMeV][NMeV]P[NMeN][ξNMeA]-OMe) | > 50 µM (inactive) | 42.1 µM (inactive) | > 100 µM (inactive) | > 50 µM (inactive) | > 50 µM (inactive) | > 50 µM (inactive) | > 50 µM (inactive) | > 50 µM (inactive) | > 50 µM (inactive) | > 50 µM (inactive) | > 50 µM (inactive) | > 100 µM (inactive) | > 50 µM (inactive) | > 100 µM (inactive) | > 50 µM (inactive) | > 50 µM (inactive) | > 50 µM (inactive) | > 100 µM (inactive) | > 50 µM (inactive) | > 50 µM (inactive)
COc1ccc2c([nH]c3c(O)c(-c4c(C)cc5c([nH]c6c(CC=C(C)C)c(OC)ccc65)c4O)c(C)cc32)c1CC=C(C)C [BISMURRAYAFOLINE B] | > 100 µM (inactive) | > 100 µM (inactive) | > 100 µM (inactive) | > 100 µM (inactive) | > 100 µM (inactive) | > 100 µM (inactive) | > 100 µM (inactive) | – | > 100 µM (inactive) | > 100 µM (inactive) | > 100 µM (inactive) | > 100 µM (inactive) | > 100 µM (inactive) | > 100 µM (inactive) | > 100 µM (inactive) | > 100 µM (inactive) | > 100 µM (inactive) | > 100 µM (inactive) | – | –
